Test results published in patent publication US11725007B2, “Meta tyrosine derivatives as rho-kinase inhibitors” (Chiesi Farmaceutici S.p.A., priority 2017, dated 2023).

Tests used:
Rho kinase 2 (ROCK2) = Rho kinase 2 (ROCK2) (Homo sapiens, UniProt O75116); experiment: In vitro Rho kinase inhibitory activity assay (ADP-Glo), ROCK2; assay type: biochemical; details: 10 μM ATP, Myelin Basic Protein substrate, 25° C., Ki by Cheng-Prusoff
Experimental: (§1) The effectiveness of compounds of the invention to inhibit Rho kinase activity can be determined in a 10 μl assay containing 40 mM Tris pH7.5, 20 mM MgCl2 0.1 mg/ml BSA, 50 μM DTT and 2.5 μM peptide substrate (Myelin Basic Protein) using an ADP-Glo kit (Promega). Compounds were dissolved in DMSO such that the final concentration of DMSO was 1% in the assay. All reactions/incubations are performed at 25° C. Compound (2 ul) and either Rho kinase 1 or 2 (4 μl) were mixed and incubated for 30 mins. Reactions were initiated by addition of ATP (4 μl) such that the final concentration of ATP in the assay was 10 μM. After a 1 hour incubation 10 μl of ADP-Glo Reagent was added and after a further 45 minute incubation 20 ul of Kinase Detection Buffer was added and the mixture incubated for a further 30 minutes. The luminescent signal was measured on a luminometer. […] Compounds were tested in dose-response format and the inhibition of kinase activity was calculated at each concentration of compound. To determine the IC50 (concentration of compound required to inhibit 50% of the enzyme activity) data were fit to a plot of % inhibition vs Log10 compound concentration using a sigmoidal fit with a variable slope and fixing the maximum to 100% and the minimum to 0%. To determine the Ki values the Cheng-Prusoff equation was utilized (Ki=IC50/(1+[S]/Km)

Rho kinase 1 (ROCK1) = Rho kinase 1 (ROCK1) (Homo sapiens, UniProt Q13464); experiment: In vitro Rho kinase inhibitory activity assay (ADP-Glo), ROCK1; assay type: biochemical; details: 10 μM ATP, Myelin Basic Protein substrate, 25° C., Ki by Cheng-Prusoff
Experimental: as §1

Sequence of Rho kinase 2 (ROCK2) (O75116 whole entry): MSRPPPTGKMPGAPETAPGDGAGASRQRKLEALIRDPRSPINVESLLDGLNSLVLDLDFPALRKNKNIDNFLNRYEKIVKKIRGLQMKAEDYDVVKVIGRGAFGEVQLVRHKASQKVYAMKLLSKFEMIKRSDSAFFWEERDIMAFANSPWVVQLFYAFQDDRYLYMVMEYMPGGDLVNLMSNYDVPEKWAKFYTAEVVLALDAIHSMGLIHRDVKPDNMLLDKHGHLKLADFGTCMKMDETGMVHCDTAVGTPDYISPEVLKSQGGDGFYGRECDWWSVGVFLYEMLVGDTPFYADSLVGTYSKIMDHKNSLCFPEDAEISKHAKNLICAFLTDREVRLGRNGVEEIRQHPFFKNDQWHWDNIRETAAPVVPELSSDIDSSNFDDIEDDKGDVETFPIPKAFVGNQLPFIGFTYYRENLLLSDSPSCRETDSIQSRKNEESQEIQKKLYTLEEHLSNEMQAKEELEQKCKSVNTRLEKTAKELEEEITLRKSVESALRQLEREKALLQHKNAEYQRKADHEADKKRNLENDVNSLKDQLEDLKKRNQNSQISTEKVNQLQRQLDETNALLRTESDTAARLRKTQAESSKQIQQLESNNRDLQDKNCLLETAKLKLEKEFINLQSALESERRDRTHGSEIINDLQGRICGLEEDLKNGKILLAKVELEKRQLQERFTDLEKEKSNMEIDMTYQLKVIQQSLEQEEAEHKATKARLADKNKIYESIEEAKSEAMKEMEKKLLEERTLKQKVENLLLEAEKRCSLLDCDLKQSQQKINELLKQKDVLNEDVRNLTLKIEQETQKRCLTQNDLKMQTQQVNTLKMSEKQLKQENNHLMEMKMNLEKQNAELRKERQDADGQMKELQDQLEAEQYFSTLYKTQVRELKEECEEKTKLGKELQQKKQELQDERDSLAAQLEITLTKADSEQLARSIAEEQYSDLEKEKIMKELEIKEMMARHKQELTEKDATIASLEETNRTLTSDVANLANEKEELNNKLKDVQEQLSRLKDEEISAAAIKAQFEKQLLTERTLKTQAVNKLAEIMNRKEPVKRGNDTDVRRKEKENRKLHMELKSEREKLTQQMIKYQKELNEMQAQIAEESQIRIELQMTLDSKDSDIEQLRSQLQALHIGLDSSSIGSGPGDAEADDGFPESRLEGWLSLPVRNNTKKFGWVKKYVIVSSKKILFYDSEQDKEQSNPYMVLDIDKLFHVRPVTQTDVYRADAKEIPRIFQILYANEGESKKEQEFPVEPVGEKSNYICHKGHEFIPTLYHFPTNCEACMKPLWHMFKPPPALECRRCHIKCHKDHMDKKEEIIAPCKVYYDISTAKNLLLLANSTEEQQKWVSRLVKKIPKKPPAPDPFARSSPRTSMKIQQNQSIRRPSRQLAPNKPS
Sequence of Rho kinase 1 (ROCK1) (Q13464 whole entry): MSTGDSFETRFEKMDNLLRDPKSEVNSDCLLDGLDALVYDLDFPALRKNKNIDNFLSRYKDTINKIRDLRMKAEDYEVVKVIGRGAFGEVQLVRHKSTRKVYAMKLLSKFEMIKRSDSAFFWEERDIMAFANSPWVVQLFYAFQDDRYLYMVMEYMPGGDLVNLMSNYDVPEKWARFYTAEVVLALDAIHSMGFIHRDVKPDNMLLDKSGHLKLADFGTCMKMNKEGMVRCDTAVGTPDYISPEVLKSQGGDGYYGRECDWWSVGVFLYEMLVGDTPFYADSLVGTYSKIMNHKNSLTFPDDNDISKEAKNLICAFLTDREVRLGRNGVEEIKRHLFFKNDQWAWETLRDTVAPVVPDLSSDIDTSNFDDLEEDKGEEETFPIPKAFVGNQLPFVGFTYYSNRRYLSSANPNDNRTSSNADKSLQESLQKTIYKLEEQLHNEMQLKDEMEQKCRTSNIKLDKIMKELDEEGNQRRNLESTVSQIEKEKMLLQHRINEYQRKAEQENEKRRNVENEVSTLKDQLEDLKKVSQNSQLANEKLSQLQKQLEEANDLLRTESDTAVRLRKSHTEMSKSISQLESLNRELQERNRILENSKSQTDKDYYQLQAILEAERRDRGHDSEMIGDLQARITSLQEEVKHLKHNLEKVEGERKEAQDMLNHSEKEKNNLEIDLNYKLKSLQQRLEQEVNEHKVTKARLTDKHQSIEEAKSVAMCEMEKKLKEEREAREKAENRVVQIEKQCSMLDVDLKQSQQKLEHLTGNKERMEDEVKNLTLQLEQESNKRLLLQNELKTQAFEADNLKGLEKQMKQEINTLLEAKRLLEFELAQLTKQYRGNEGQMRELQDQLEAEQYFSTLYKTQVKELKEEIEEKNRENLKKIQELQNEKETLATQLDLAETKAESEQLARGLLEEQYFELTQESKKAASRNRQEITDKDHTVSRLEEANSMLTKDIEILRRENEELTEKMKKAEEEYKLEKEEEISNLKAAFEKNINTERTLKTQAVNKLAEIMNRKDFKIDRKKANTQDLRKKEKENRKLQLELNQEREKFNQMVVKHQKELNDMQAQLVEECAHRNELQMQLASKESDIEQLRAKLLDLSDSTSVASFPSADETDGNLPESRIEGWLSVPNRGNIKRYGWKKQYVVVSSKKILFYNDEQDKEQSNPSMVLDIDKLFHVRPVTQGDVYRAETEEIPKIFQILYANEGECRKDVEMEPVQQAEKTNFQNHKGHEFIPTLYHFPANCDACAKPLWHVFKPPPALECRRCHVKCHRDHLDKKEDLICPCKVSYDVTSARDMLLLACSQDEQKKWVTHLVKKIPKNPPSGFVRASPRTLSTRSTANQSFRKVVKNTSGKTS

| Structure (SMILES) | Ki (Rho kinase 2 (ROCK2)) | Ki (Rho kinase 1 (ROCK1)) |
| --- | --- | --- |
| Cc1c[nH]c2nccc(Oc3cccc(CC(N)C(=O)N4CCN(C)CC4)c3)c12 (centres unmarked) [Example 1, 2-Amino-3-(3-((3-methyl-1H-pyrrolo[2,3-b]pyridin-4-yl)oxy)phenyl)-1-(4-methylpiperazin-1-yl)propan-1-one] | 5 to 50 nM | 5 to 50 nM |
| COCCCNC(=O)C(N)Cc1cccc(Oc2ccnc3[nH]cc(C)c23)c1 (centres unmarked) [Example 2, 2-amino-N-(3-methoxypropyl)-3-(3-((3-methyl-1H-pyrrolo[2,3-b]pyridin-4-yl)oxy)phenyl)propanamide] | 5 to 50 nM | 5 to 50 nM |
| Cc1c[nH]c2nccc(Oc3cccc(CC(N)C(=O)NCCCN(C)C)c3)c12 (centres unmarked) [Example 3, 2-amino-N-(3-(dimethylamino)propyl)-3-(3-((3-methyl-1H-pyrrolo[2,3-b]pyridin-4-yl)oxy)phenyl)propanamide] | > 50 nM | > 50 nM |
| Cc1c[nH]c2nccc(Oc3cccc(CC(N)C(=O)NCCc4ccncc4)c3)c12 (centres unmarked) [Example 4, 2-amino-3-(3-((3-methyl-1H-pyrrolo[2,3-b]pyridin-4-yl)oxy)phenyl)-N-(2-(pyridin-4-yl)ethyl)propanamide] | < 5 nM | < 5 nM |
| Cc1c[nH]c2nccc(Oc3cccc(C(N)CC(=O)N4CCN(C)CC4)c3)c12 (centres unmarked) [Example 5, 3-amino-3-(3-((3-methyl-1H-pyrrolo[2,3-b]pyridin-4-yl)oxy)phenyl)-1-(4-methylpiperazin-1-yl)propan-1-one] | 5 to 50 nM | 5 to 50 nM |
| COCCCNC(=O)CC(N)c1cccc(Oc2ccnc3[nH]cc(C)c23)c1 (centres unmarked) [Example 6, 3-amino-N-(3-methoxypropyl)-3-(3-((3-methyl-1H-pyrrolo[2,3-b]pyridin-4-yl)oxy)phenyl)propanamide] | 5 to 50 nM | 5 to 50 nM |
| Cc1c[nH]c2nccc(Oc3cccc(C(N)CC(=O)NCCc4ccncc4)c3)c12 (centres unmarked) [Example 7, 3-amino-3-(3-((3-methyl-1H-pyrrolo[2,3-b]pyridin-4-yl)oxy)phenyl)-N-(2-(pyridin-4-yl)ethyl)propanamide] | 5 to 50 nM | 5 to 50 nM |
| Cc1c[nH]c2nccc(Oc3cccc(C(N)CC(=O)NCCCN(C)C)c3)c12 (centres unmarked) [Example 8, 3-amino-N-(3-(dimethylamino)propyl)-3-(3-((3-methyl-1H-pyrrolo[2,3-b]pyridin-4-yl)oxy)phenyl)propanamide] | > 50 nM | > 50 nM |
| Cc1c[nH]c2nccc(Oc3cccc(CC(CN)C(=O)N4CCN(C)CC4)c3)c12 (centres unmarked) [Example 9, 3-amino-2-(3-((3-methyl-1H-pyrrolo[2,3-b]pyridin-4-yl)oxy)benzyl)-1-(4-methylpiperazin-1-yl)propan-1-one] | > 50 nM | > 50 nM |
| COCCCNC(=O)C(CN)Cc1cccc(Oc2ccnc3[nH]cc(C)c23)c1 (centres unmarked) [Example 10, 3-amino-N-(3-methoxypropyl)-2-(3-((3-methyl-1H-pyrrolo[2,3-b]pyridin-4-yl)oxy)benzyl)propanamide] | 5 to 50 nM | 5 to 50 nM |

Other lines, results leading:

| Ki (Rho kinase 2 (ROCK2)) | Ki (Rho kinase 1 (ROCK1)) | Structure (SMILES) |
| --- | --- | --- |
| 5 to 50 nM | 5 to 50 nM | Cc1c[nH]c2nccc(Oc3cccc(CC(CN)C(=O)NCCc4ccncc4)c3)c12 (centres unmarked) [Example 11, 3-amino-2-(3-((3-methyl-1H-pyrrolo[2,3-b]pyridin-4-yl)oxy)benzyl)-N-(2-(pyridin-4-yl)ethyl)propanamide] |
| > 50 nM | > 50 nM | Cc1c[nH]c2nccc(Oc3cccc(CC(CN)C(=O)NCCCN(C)C)c3)c12 (centres unmarked) [Example 12, 3-amino-N-(3-(dimethylamino)propyl)-2-(3-((3-methyl-1H-pyrrolo[2,3-b]pyridin-4-yl)oxy)benzyl)propanamide] |
| 5 to 50 nM | 5 to 50 nM | Cc1c[nH]c2nccc(Oc3cccc(C(CN)CC(=O)NCCc4ccncc4)c3)c12 (centres unmarked) [Example 13, 4-Amino-3-(3-((3-methyl-1H-pyrrolo[2,3-b]pyridin-4-yl)oxy)phenyl)-N-(2-(pyridin-4-yl)ethyl)butanamide] |
| 5 to 50 nM | 5 to 50 nM | COCCCNC(=O)CC(CN)c1cccc(Oc2ccnc3[nH]cc(C)c23)c1 (centres unmarked) [Example 14, 4-amino-N-(3-methoxypropyl)-3-(3-((3-methyl-1H-pyrrolo[2,3-b]pyridin-4-yl)oxy)phenyl)butanamide] |
| > 50 nM | > 50 nM | Cc1c[nH]c2nccc(Oc3cccc(C(CN)CC(=O)NCCCN(C)C)c3)c12 (centres unmarked) [Example 15, 4-amino-N-(3-(dimethylamino)propyl)-3-(3-((3-methyl-1H-pyrrolo[2,3-b]pyridin-4-yl)oxy)phenyl)butanamide] |
| 5 to 50 nM | 5 to 50 nM | Cc1c[nH]c2nccc(Oc3cccc(C(CN)CC(=O)N4CCN(C)CC4)c3)c12 (centres unmarked) [Example 16, 4-amino-3-(3-((3-methyl-1H-pyrrolo[2,3-b]pyridin-4-yl)oxy)phenyl)-1-(4-methylpiperazin-1-yl)butan-1-one] |
